{"source": "patent US10101331B2", "about": "“Methods of evaluating patients using E-cadherin or vimentin” (AGIOS PHARMACEUTICALS, INC, priority 2012, dated 2018)", "format_in_all_cases": "cell-based", "key": {"A427 cells": {"test_system": "A427 cells", "test": "72 hr proliferation assay in lines stably expressing empty vector, GAC or GAC-BR", "experimental": "A427 parent cells or lines stably expressing pLVX empty vector control (Con), wild-type GAC (GAC), or a BPTES-resistant GAC enzyme (GAC-BR) were treated with indicated concentrations of drugs in a 72 hr proliferation assay. […] Calculated p-values from student t-test, * (3×10^−8), **(10^−9), ^#(10^−7), ^##(2×10^−6).\n(§1) Levels of overexpression of the GAC WT and GAC-BR mutant were approximately 1.5-2.0 fold above endogenous GLS1 levels (FIG. 12)."}, "MDA-MB-231 cells [1]": {"test_system": "MDA-MB-231 cells", "test": "13C(5)-Gln labeling of glutamate and aspartate, LC/MS", "conditions": "1 hr drug pre-treatment, 2 hr 13C(5)-Gln labeling", "experimental": "(§2) MDA-MB-231 cell lines stably expressing empty vector control (Con), wild-type GAC (GAC), or a BPTES-resistant GAC enzyme (GAC-BR) were treated with indicated concentrations of drugs in a 72 hr proliferation assay. […] Calculated p-values from student t-test, * (3×10^−5), **(7×10^−10), ^#(3×10^−5), ^##(5×10^−7).\nSeveral groups have shown that GLS inhibition leads to a decrease in cellular tricarboxylic acid cycle (TCA) intermediates downstream of GLS activity (P. Gao et al. Nature 458, 762 (2009); T. Cheng et al. Proceedings of the National Academy of Sciences 108, 8674 (2011)). Measurement of glutamate (the product of the glutaminase reaction) and aspartate (which derives both carbon and nitrogen from glutamate) are particularly sensitive readouts of glutaminase activity (FIG. 13). ^13C labeled carbon in cells pre-treated with drug was tracked for 1 hr, followed by a 2 hr ^13C(5)-Gln labeling period, via LC/MS."}, "MDA-MB-231 cells [2]": {"test_system": "MDA-MB-231 cells", "test": "72 hr proliferation assay in lines stably expressing empty vector, GAC or GAC-BR", "experimental": "as §2, §1"}, "NCI-H2347": {"test_system": "NCI-H2347", "test": "Lung cancer cell line panel screened for sensitivity to BPTES, 72 hr proliferation assay", "source_text": "(§3) Of these, 44 of the cell lines have been classified as non-small cell lung cancer (NSCLC). […] Four of the top 25 transcriptional/cellular pathways were related to the epithelial-mesenchymal transition (EMT) (ranks 1, 15, 23, 25 of FIG. 2). […] Low E-cadherin/high vimentin are well-defined markers of cells that have a mesenchymal phenotype as characterized for example, in any one of the following references: (Yauch et al., (2005) Cin Cancer Res 11:24; Savagner et al., (2010) Ann Oncol. 21(suppl 7): vii89; Thiery et al., (2002) Nature Reviews Cancer June vol 2:442)."}, "NCI-H1666": {"test_system": "NCI-H1666", "test": "Lung cancer cell line panel screened for sensitivity to BPTES, 72 hr proliferation assay", "source_text": "as §3"}, "NCI-H748": {"test_system": "NCI-H748", "test": "Lung cancer cell line panel screened for sensitivity to BPTES, 72 hr proliferation assay", "source_text": "as §3"}, "NCI-H1373": {"test_system": "NCI-H1373", "test": "Lung cancer cell line panel screened for sensitivity to BPTES, 72 hr proliferation assay", "source_text": "as §3"}, "H2228": {"test_system": "H2228", "test": "Lung cancer cell line panel screened for sensitivity to BPTES, 72 hr proliferation assay", "source_text": "as §3"}, "NCI-H2009": {"test_system": "NCI-H2009", "test": "Lung cancer cell line panel screened for sensitivity to BPTES, 72 hr proliferation assay", "source_text": "as §3"}, "NCI-H1437": {"test_system": "NCI-H1437", "test": "Lung cancer cell line panel screened for sensitivity to BPTES, 72 hr proliferation assay", "source_text": "as §3"}, "DMS-53": {"test_system": "DMS-53", "test": "Lung cancer cell line panel screened for sensitivity to BPTES, 72 hr proliferation assay", "conditions": "DMS-53 cell line", "source_text": "as §3"}, "NCI-H522": {"test_system": "NCI-H522", "test": "Lung cancer cell line panel screened for sensitivity to BPTES, 72 hr proliferation assay", "source_text": "as §3"}, "NCI-H524": {"test_system": "NCI-H524", "test": "Lung cancer cell line panel screened for sensitivity to BPTES, 72 hr proliferation assay", "source_text": "as §3"}, "NCI-H209": {"test_system": "NCI-H209", "test": "Lung cancer cell line panel screened for sensitivity to BPTES, 72 hr proliferation assay", "source_text": "as §3"}, "NCI-H1573": {"test_system": "NCI-H1573", "test": "Lung cancer cell line panel screened for sensitivity to BPTES, 72 hr proliferation assay", "source_text": "as §3"}, "NCI-H1568": {"test_system": "NCI-H1568", "test": "Lung cancer cell line panel screened for sensitivity to BPTES, 72 hr proliferation assay", "source_text": "as §3"}, "A549": {"test_system": "A549", "test": "Lung cancer cell line panel screened for sensitivity to BPTES, 72 hr proliferation assay", "source_text": "as §3"}, "NCI-H1838": {"test_system": "NCI-H1838", "test": "Lung cancer cell line panel screened for sensitivity to BPTES, 72 hr proliferation assay", "source_text": "as §3"}, "NCI-H1395": {"test_system": "NCI-H1395", "test": "Lung cancer cell line panel screened for sensitivity to BPTES, 72 hr proliferation assay", "source_text": "as §3"}, "COR-L23": {"test_system": "COR-L23", "test": "Lung cancer cell line panel screened for sensitivity to BPTES, 72 hr proliferation assay", "source_text": "as §3"}, "NCI-H1299": {"test_system": "NCI-H1299", "test": "Lung cancer cell line panel screened for sensitivity to BPTES, 72 hr proliferation assay", "source_text": "as §3"}, "NCI-H1623": {"test_system": "NCI-H1623", "test": "Lung cancer cell line panel screened for sensitivity to BPTES, 72 hr proliferation assay", "source_text": "as §3"}, "NCI-H1770": {"test_system": "NCI-H1770", "test": "Lung cancer cell line panel screened for sensitivity to BPTES, 72 hr proliferation assay", "source_text": "as §3"}, "NCI-H2405": {"test_system": "NCI-H2405", "test": "Lung cancer cell line panel screened for sensitivity to BPTES, 72 hr proliferation assay", "source_text": "as §3"}, "NCI-H82": {"test_system": "NCI-H82", "test": "Lung cancer cell line panel screened for sensitivity to BPTES, 72 hr proliferation assay", "source_text": "as §3"}, "NCI-H1993": {"test_system": "NCI-H1993", "test": "Lung cancer cell line panel screened for sensitivity to BPTES, 72 hr proliferation assay", "source_text": "as §3"}, "NCI-H1694": {"test_system": "NCI-H1694", "test": "Lung cancer cell line panel screened for sensitivity to BPTES, 72 hr proliferation assay", "source_text": "as §3"}, "NCI-H2107": {"test_system": "NCI-H2107", "test": "Lung cancer cell line panel screened for sensitivity to BPTES, 72 hr proliferation assay", "source_text": "as §3"}, "NCI-H2126": {"test_system": "NCI-H2126", "test": "Lung cancer cell line panel screened for sensitivity to BPTES, 72 hr proliferation assay", "source_text": "as §3"}, "NCI-H1048": {"test_system": "NCI-H1048", "test": "Lung cancer cell line panel screened for sensitivity to BPTES, 72 hr proliferation assay", "source_text": "as §3"}}}
{"smiles": "O=C(Cc1ccccc1)Nc1nnc(CCSCCc2nnc(NC(=O)Cc3ccccc3)s2)s1", "note": "[BPTES]", "values": [{"measurement": "sensitivity to BPTES", "setting": "A427 cells; A427 cells expressing empty vector or GAC-WT", "value": "retained significant sensitivity"}, {"measurement": "sensitivity to BPTES", "setting": "A427 cells; A427 cells with stable overexpression of the GAC-BR mutant", "value": "rendered resistant"}, {"measurement": "13C label accumulation in glutamate and aspartate", "setting": "MDA-MB-231 cells [1]", "value": "decreased label accumulation"}, {"measurement": "sensitivity to BPTES", "setting": "MDA-MB-231 cells [2]; MDA-MB-231 cells expressing empty vector or GAC-WT", "value": "retained significant sensitivity"}, {"measurement": "sensitivity to BPTES", "setting": "MDA-MB-231 cells [2]; MDA-MB-231 cells with stable overexpression of the GAC-BR mutant", "value": "rendered resistant"}, {"measurement": "μ/μmax", "setting": "NCI-H2347", "value": 0.90}, {"measurement": "μ/μmax", "setting": "NCI-H1666", "value": 1.00}, {"measurement": "μ/μmax", "setting": "NCI-H748", "value": 0.76}, {"measurement": "μ/μmax", "setting": "NCI-H1373", "value": 0.79}, {"measurement": "μ/μmax", "setting": "H2228", "value": 0.69}, {"measurement": "μ/μmax", "setting": "NCI-H2009", "value": 0.96}, {"measurement": "Max Inh @ 10 uM (%)", "setting": "NCI-H1437; NCI-H1437, 10 uM", "value": 27, "unit": "%"}, {"measurement": "Mu/max @10 uM", "setting": "NCI-H1437; NCI-H1437, 10 uM", "value": 0.81}, {"measurement": "μ/μmax @10 uM", "setting": "NCI-H1437; NCI-H1437, 10 uM", "value": 0.81}, {"measurement": "μ/μmax", "setting": "NCI-H1437; NCI-H1437 cell line", "value": 0.81}, {"measurement": "μ/μmax", "setting": "DMS-53", "value": 0.93}, {"measurement": "Max Inh @ 10 uM (%)", "setting": "NCI-H522; NCI-H522, 10 uM", "value": 39, "unit": "%"}, {"measurement": "Mu/max @10 uM", "setting": "NCI-H522; NCI-H522, 10 uM", "value": 0.61}, {"measurement": "μ/μmax @10 uM", "setting": "NCI-H522; NCI-H522, 10 uM", "value": 0.61}, {"measurement": "μ/μmax", "setting": "NCI-H522; NCI-H522 cell line", "value": 0.61}, {"measurement": "μ/μmax", "setting": "NCI-H524", "value": 0.53}, {"measurement": "μ/μmax", "setting": "NCI-H209", "value": 0.64}, {"measurement": "μ/μmax", "setting": "NCI-H1573", "value": 0.92}, {"measurement": "Max Inh @ 10 uM (%)", "setting": "NCI-H1568; NCI-H1568, 10 uM", "value": 50, "unit": "%"}, {"measurement": "Mu/max @10 uM", "setting": "NCI-H1568; NCI-H1568, 10 uM", "value": 0.25}, {"measurement": "μ/μmax @10 uM", "setting": "NCI-H1568; NCI-H1568, 10 uM", "value": 0.25}, {"measurement": "μ/μmax", "setting": "NCI-H1568; NCI-H1568 cell line", "value": 0.25}, {"measurement": "Max Inh @ 10 uM (%)", "setting": "A549; A549, 10 uM", "value": 73, "unit": "%"}, {"measurement": "Mu/max @10 uM", "setting": "A549; A549, 10 uM", "value": 0.53}, {"measurement": "μ/μmax @10 uM", "setting": "A549; A549, 10 uM", "value": 0.53}, {"measurement": "μ/μmax", "setting": "A549; A549 cell line", "value": 0.53}, {"measurement": "μ/μmax", "setting": "NCI-H1838", "value": 0.63}, {"measurement": "Max Inh @ 10 uM (%)", "setting": "NCI-H1395; NCI-H1395, 10 uM", "value": 16, "unit": "%"}, {"measurement": "Mu/max @10 uM", "setting": "NCI-H1395; NCI-H1395, 10 uM", "value": 0.61}, {"measurement": "μ/μmax @10 uM", "setting": "NCI-H1395; NCI-H1395, 10 uM", "value": 0.61}, {"measurement": "μ/μmax", "setting": "NCI-H1395; NCI-H1395 cell line", "value": 0.61}, {"measurement": "μ/μmax", "setting": "COR-L23", "value": 0.96}, {"measurement": "μ/μmax", "setting": "NCI-H1299", "value": 0.49}, {"measurement": "μ/μmax", "setting": "NCI-H1623", "value": 0.79}, {"measurement": "μ/μmax", "setting": "NCI-H1770", "value": 0.56}, {"measurement": "μ/μmax", "setting": "NCI-H2405", "value": 0.92}, {"measurement": "μ/μmax", "setting": "NCI-H82", "value": 0.90}, {"measurement": "μ/μmax", "setting": "NCI-H1993", "value": 0.89}, {"measurement": "μ/μmax", "setting": "NCI-H1694", "value": 1.00}, {"measurement": "μ/μmax", "setting": "NCI-H2107", "value": 0.79}, {"measurement": "μ/μmax", "setting": "NCI-H2126", "value": 1.00}, {"measurement": "μ/μmax", "setting": "NCI-H1048", "value": 0.94}]}
